Toxic doses and inconclusive results are not listed. Cut-off read from the data, not from the text of the source: active = T/C of 150% or more; inactive = T/C below 125%.
System: L1210 leukemia ip in BDF1 mice, survival T/C
Experiment: NCI In Vivo Anticancer Drug Screen. Data for tumor model L1210 Leukemia (intraperitoneal) in B6D2F1 (BDF1) mice
Conditions: endpoint: mean survival time, higher = longer survival
Method in brief: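 Value reflects the ratio of survival in compound-treated mice to survival in vehicle-treated controls, with both groups carrying the same transplanted tumor.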

[1] = dose: 100.0 mg/kg/injection, schedule: Q04DX003 (ip), vehicle: saline with Tween-80
[2] = dose: 200.0 mg/kg/injection, schedule: Q04DX003 (ip), vehicle: saline with Tween-80
[3] = dose: 400.0 mg/kg/injection, schedule: Q04DX003 (ip), vehicle: saline with Tween-80
[4] = dose: 50.0 mg/kg/injection, schedule: Q01DX009 (ip), vehicle: saline with Tween-80
[5] = dose: 100.0 mg/kg/injection, schedule: Q01DX009 (ip), vehicle: saline with Tween-80
[6] = dose: 200.0 mg/kg/injection, schedule: Q01DX009 (ip), vehicle: saline with Tween-80
[7] = dose: 25.0 mg/kg/injection, schedule: Q04DX003 (ip), vehicle: saline
[8] = dose: 100.0 mg/kg/injection, schedule: Q04DX003 (ip), vehicle: saline
[9] = dose: 100.0 mg/kg/injection, schedule: Q01DX009 (ip), vehicle: Klucel (hydroxypropylcellulose) (HPC)
[10] = dose: 100.0 mg/kg/injection, schedule: Q04DX003 (ip), vehicle: Klucel (hydroxypropylcellulose) (HPC)
[11] = dose: 200.0 mg/kg/injection, schedule: Q01DX009 (ip), vehicle: Klucel (hydroxypropylcellulose) (HPC)
[12] = dose: 200.0 mg/kg/injection, schedule: Q04DX003 (ip), vehicle: Klucel (hydroxypropylcellulose) (HPC)
[13] = dose: 400.0 mg/kg/injection, schedule: Q04DX003 (ip), vehicle: Klucel (hydroxypropylcellulose) (HPC)
[14] = dose: 400.0 mg/kg/injection, schedule: Q01DX009 (ip), vehicle: Klucel (hydroxypropylcellulose) (HPC)
[15] = dose: 100.0 mg/kg/injection, schedule: Q01DX001 (ip), vehicle: other
[16] = dose: 12.5 mg/kg/injection, schedule: Q04DX003 (ip), vehicle: saline with Tween-80
[17] = dose: 100.0 mg/kg/injection, schedule: Q01DX009 (ip), vehicle: saline
[18] = dose: 200.0 mg/kg/injection, schedule: Q01DX009 (ip), vehicle: saline
[19] = dose: 200.0 mg/kg/injection, schedule: Q04DX003 (ip), vehicle: saline
[20] = dose: 400.0 mg/kg/injection, schedule: Q01DX009 (ip), vehicle: saline
[21] = dose: 400.0 mg/kg/injection, schedule: Q04DX003 (ip), vehicle: saline
[22] = dose: 100.0 mg/kg/injection, schedule: Q04DX002 (ip), vehicle: saline
[23] = dose: 100.0 mg/kg/injection, schedule: Q01DX001 (ip), vehicle: saline
[24] = dose: 200.0 mg/kg/injection, schedule: Q01DX001 (ip), vehicle: saline

Measured: T/C

CCOC(=O)CC(C)NC1CCCCC1 (stereo unspecified)
inactive: dose: 100.0 mg/kg/injection, schedule: Q01DX Z (ip), vehicle: methylcellulose (MC) 92 % of control | dose: 200.0 mg/kg/injection, schedule: Q01DX Z (ip), vehicle: methylcellulose (MC) 92 % of control

O=c1cc(CNc2ccc(Cl)cc2)[nH]c(=O)[nH]1
inactive: [1] 98 % of control | [2] 101 % of control | [3] 95 % of control

C=C(C)COc1c(Cl)cc(Cl)cc1C=Nc1ccccc1
inactive: [4] 101 % of control | dose: 100.0 mg/kg/injection, schedule: Q01DX001 (ip), vehicle: saline with Tween-80 94 % of control | [5] 90 % of control | dose: 200.0 mg/kg/injection, schedule: Q01DX001 (ip), vehicle: saline with Tween-80 89 % of control | [6] 104 % of control

O=c1cc(O)nc[nH]1
inactive: dose: 220.0 mg/kg/injection, schedule: Q01DX Z (oral), vehicle: methylcellulose (MC) 105 % of control | dose: 330.0 mg/kg/injection, schedule: Q01DX Z (oral), vehicle: methylcellulose (MC) 100 % of control | dose: 500.0 mg/kg/injection, schedule: Q01DX Z (oral), vehicle: methylcellulose (MC) 95 % of control

CC(=O)Oc1cccc(N(C)C)c1
inactive: [7] 97 % of control | dose: 50.0 mg/kg/injection, schedule: Q04DX003 (ip), vehicle: saline 100 % of control | dose: 100.0 mg/kg/injection, schedule: Q01DX001 (ip), vehicle: acetone 98 % of control | [8] 91 % of control

CC1(CCl)OCCO1
inactive: [9] 91 % of control | [10] 100 % of control | [11] 96 % of control | [12] 101 % of control | [13] 98 % of control

COc1ccc(CC(=O)NCCN(CCN(CCO)C(=O)Cc2ccc(OC)cc2)C(=O)Cc2ccc(OC)cc2)cc1
inactive: [5] 95 % of control | [1] 100 % of control | [6] 90 % of control | [2] 102 % of control | dose: 400.0 mg/kg/injection, schedule: Q01DX009 (ip), vehicle: saline with Tween-80 91 % of control | [3] 94 % of control

O=C1C=CC(=O)N1c1nccs1
inactive: [1] 95 % of control | [2] 90 % of control | [3] 95 % of control

COc1ccc(Br)cc1C1(O)C2C=CC1CC2 (stereo unspecified)
inactive: [9] 102 % of control | [11] 102 % of control | [14] 98 % of control

OCCC(c1ccc(Cl)cc1)N1CCCCC1 (stereo unspecified)
inactive: [15] 104 % of control

CCCCC#C/C=C/CCCC
inactive: [4] 95 % of control | [5] 100 % of control | [6] 100 % of control

[Cl][Sn]([Cl])([c]1ccccc1)[c]1ccccc1.c1ccc(-c2nnc(-c3ccccn3)nc2-c2ccccc2)cc1
inactive: dose: 3.12 mg/kg/injection, schedule: Q04DX003 (ip), vehicle: saline with Tween-80 96 % of control | dose: 6.25 mg/kg/injection, schedule: Q04DX003 (ip), vehicle: saline with Tween-80 104 % of control | dose: 6.25 mg/kg/injection, schedule: Q04DX003 (ip), vehicle: saline 93 % of control | [16] 112 % of control | dose: 12.5 mg/kg/injection, schedule: Q04DX003 (ip), vehicle: saline 98 % of control | [7] 120 % of control

CC(=O)OCC(=O)[C@@]1(O)CC[C@H]2[C@@H]3C[C@H](C)C4=CC(=O)C=C[C@]4(C)[C@@]3(F)[C@@H](O)C[C@@]21C
inactive: [17] 103 % of control | [8] 94 % of control | [18] 92 % of control | [19] 111 % of control | [20] 108 % of control | [21] 103 % of control

COc1ccc(OCC(=O)N2CCCCC2)cc1
inactive: dose: 100.0 mg/kg/injection, schedule: Q01DX009 (ip), vehicle: carboxymethylcellulose (CMC) 92 % of control | dose: 200.0 mg/kg/injection, schedule: Q01DX009 (ip), vehicle: carboxymethylcellulose (CMC) 106 % of control

CC(=O)c1cccc(NC(=O)N2CCCCC2C)c1 (stereo unspecified)
inactive: [9] 111 % of control | [11] 112 % of control | [14] 103 % of control

Nc1nc2c(c(=O)[nH]1)CP(=S)(c1ccccc1)CC2 (stereo unspecified)
inactive: dose: 100.0 mg/kg/injection, schedule: Q04DX002 (ip), vehicle: saline with Tween-80 102 % of control | dose: 200.0 mg/kg/injection, schedule: Q04DX002 (ip), vehicle: saline with Tween-80 102 % of control | dose: 400.0 mg/kg/injection, schedule: Q04DX002 (ip), vehicle: saline with Tween-80 94 % of control

COC1(NC(=O)CCCC(N)C(=O)O)C(=O)N2C(C(=O)O)=C(COC(N)=O)CSC21 (stereo unspecified)
inactive: [22] 103 % of control | dose: 200.0 mg/kg/injection, schedule: Q04DX002 (ip), vehicle: saline 122 % of control | dose: 400.0 mg/kg/injection, schedule: Q04DX002 (ip), vehicle: saline 107 % of control

CN(C)c1ccc(/C=N\NC(=O)CCCC(=O)N/N=C/c2ccc(N(C)C)cc2)cc1
inactive: dose: 50.0 mg/kg/injection, schedule: Q01DX001 (ip), vehicle: saline 93 % of control | [23] 96 % of control | [24] 98 % of control | dose: 400.0 mg/kg/injection, schedule: Q01DX001 (ip), vehicle: saline 93 % of control

CCCCCCCCCCCCCCCC(=O)OCC1OC(CO)(OC2OC(CO)C(O)C(O)C2O)C(O)C1O (stereo unspecified)
inactive: [9] 91 % of control | [10] 89 % of control | [11] 94 % of control | [12] 91 % of control | [13] 98 % of control

CCCCCCc1cccc(C)n1
inactive: [23] 94 % of control | [24] 92 % of control

CC(N)C(=O)NC(CC(=O)O)C(=O)O (stereo unspecified)
inactive: dose: 25.0 mg/kg/injection, schedule: Q04DX002 (ip), vehicle: saline 98 % of control | dose: 50.0 mg/kg/injection, schedule: Q04DX002 (ip), vehicle: saline 94 % of control | [22] 94 % of control

COc1ccc(CC(=O)NNC(=O)C2(C(C)C)OC3(O)CCCCCN3C2=O)cc1OC (stereo unspecified)
inactive: [16] 101 % of control | dose: 25.0 mg/kg/injection, schedule: Q04DX003 (ip), vehicle: saline with Tween-80 92 % of control | dose: 50.0 mg/kg/injection, schedule: Q04DX003 (ip), vehicle: saline with Tween-80 101 % of control | [1] 90 % of control

ClCc1ccccn1
inactive: [17] 92 % of control | [8] 98 % of control | [18] 95 % of control | [19] 101 % of control | [20] 89 % of control | [21] 94 % of control

COc1ccc(S(=O)(=O)c2ccc(F)cc2)cc1
inactive: dose: 50.0 mg/kg/injection, schedule: Q04DX003 (ip), vehicle: Klucel (hydroxypropylcellulose) (HPC) 95 % of control | [15] 98 % of control | [10] 103 % of control | dose: 200.0 mg/kg/injection, schedule: Q01DX001 (ip), vehicle: other 110 % of control | [12] 104 % of control | dose: 400.0 mg/kg/injection, schedule: Q01DX001 (ip), vehicle: other 95 % of control

Reference: PubChem BioAssay AID248 (DTP/NCI, 2004)
